Values quoted from earlier work as cited in patent US6528086B2, “Methods and apparatus for drug delivery involving phase changing formulations” (Zars, Inc., priority 1999, dated 2003).

System: tissues
Conditions: in vivo

## CCCCNc1ccc(C(=O)OCCN(C)C)cc1 [Tetracaine]
  duration of anesthetic effect compared with lidocaine: longer lasting anesthetic effect on tissues than lidocaine
